Test results: ChEMBL document CHEMBL3046460, “Preparation of Dinotefuran Related Compounds and Agonistic Action on SAD2 Hybrid Nicotinic Acetylcholine Receptors Expressed in Xenopus laevis Oocytes” (J Pestic Sci, 2002)

Assay: Agonist activity at Drosophila melanogaster SAD/chicken beta2 nAChR expressed in Xenopus laevis oocytes assessed as inward current by two-electrode voltageclamp technique
Type: cell-based

SMILES | EC50 [µM]
O=[N+]([O-])/N=C1\NCCN1CC1CCOC1 (centres undefined) | 148
CC(=O)OCC[N+](C)(C)C [ACETYLCHOLINE] | 20
CN/C(=N/CC1CCOC1)N[N+](=O)[O-] (centres undefined) [DINOTEFURAN] | 224
O=[N+]([O-])/N=C1\NCCN1Cc1ccc(Cl)nc1 [IMIDACLOPRID] | 2.82
